How the values were obtained:
[1] = molecular target: T1, Neuropeptide Y receptor type 1 (Homo sapiens, UniProt P25929)
T1 sequence (P25929 whole entry): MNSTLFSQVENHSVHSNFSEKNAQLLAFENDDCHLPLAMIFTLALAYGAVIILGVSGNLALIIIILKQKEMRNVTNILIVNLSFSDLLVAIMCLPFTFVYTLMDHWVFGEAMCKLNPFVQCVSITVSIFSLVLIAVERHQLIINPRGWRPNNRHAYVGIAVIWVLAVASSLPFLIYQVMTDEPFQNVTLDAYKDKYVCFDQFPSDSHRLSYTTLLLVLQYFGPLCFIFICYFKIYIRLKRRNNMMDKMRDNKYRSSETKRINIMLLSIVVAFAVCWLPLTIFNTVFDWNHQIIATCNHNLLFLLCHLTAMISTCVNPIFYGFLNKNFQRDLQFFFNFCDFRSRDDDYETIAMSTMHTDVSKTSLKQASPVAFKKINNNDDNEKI

[2] = molecular target: 5-hydroxytryptamine receptor 2B (Homo sapiens, UniProt P41595); assay type: functional, cell-based
5-hydroxytryptamine receptor 2B, sequence (P41595 whole entry): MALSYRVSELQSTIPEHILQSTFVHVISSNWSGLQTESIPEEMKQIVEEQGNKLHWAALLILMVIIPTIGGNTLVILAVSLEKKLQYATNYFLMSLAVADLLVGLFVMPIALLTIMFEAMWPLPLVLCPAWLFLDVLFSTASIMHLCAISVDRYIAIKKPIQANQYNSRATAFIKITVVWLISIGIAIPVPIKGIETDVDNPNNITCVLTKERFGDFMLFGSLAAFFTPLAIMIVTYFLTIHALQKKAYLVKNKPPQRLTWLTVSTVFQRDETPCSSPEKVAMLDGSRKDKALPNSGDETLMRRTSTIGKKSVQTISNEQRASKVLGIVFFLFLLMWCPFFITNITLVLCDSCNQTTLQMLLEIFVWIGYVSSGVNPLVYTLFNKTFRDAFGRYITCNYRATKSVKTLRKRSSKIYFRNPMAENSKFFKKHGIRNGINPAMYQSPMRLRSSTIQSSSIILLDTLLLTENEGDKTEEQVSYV

[3] = molecular target: Glutamate receptor ionotropic, NMDA 1 (Rattus norvegicus, UniProt P35439)
[4] = molecular target: Voltage-gated inwardly rectifying potassium channel KCNH2 (Homo sapiens, UniProt Q12809); assay type: functional; settings: read-out: AC50
Motilin receptor = Motilin receptor (Homo sapiens, UniProt O43193)
Motilin receptor, sequence (O43193 whole entry): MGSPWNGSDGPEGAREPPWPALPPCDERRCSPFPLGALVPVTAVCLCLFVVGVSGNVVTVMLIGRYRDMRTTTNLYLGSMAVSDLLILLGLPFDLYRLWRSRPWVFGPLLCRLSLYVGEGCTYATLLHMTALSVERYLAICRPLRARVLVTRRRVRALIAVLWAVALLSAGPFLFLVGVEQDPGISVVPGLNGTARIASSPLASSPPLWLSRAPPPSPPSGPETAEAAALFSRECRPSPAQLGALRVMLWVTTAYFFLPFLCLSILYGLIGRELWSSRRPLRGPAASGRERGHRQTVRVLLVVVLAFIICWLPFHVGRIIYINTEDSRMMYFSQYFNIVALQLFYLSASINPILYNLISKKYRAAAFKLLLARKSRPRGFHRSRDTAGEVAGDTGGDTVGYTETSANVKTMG

[5] = molecular target: 5-hydroxytryptamine receptor 2A (Homo sapiens, UniProt P28223); assay type: functional, cell-based
5-hydroxytryptamine receptor 2A, sequence (P28223 whole entry): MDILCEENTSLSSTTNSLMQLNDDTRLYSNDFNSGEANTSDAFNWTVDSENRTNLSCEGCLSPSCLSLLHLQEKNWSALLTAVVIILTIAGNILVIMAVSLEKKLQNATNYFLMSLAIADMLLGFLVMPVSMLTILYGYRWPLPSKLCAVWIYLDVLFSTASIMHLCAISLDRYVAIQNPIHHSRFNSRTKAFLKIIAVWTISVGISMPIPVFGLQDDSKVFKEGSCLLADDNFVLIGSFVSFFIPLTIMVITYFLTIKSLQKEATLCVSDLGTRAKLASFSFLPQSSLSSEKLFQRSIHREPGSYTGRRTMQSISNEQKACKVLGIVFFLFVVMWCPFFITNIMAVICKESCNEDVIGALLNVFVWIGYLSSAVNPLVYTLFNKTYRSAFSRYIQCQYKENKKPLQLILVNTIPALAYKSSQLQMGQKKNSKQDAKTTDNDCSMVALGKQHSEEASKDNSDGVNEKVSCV

[6] = molecular target: T2, Type-1 angiotensin II receptor (Homo sapiens, UniProt P30556)
T2 sequence (P30556 whole entry): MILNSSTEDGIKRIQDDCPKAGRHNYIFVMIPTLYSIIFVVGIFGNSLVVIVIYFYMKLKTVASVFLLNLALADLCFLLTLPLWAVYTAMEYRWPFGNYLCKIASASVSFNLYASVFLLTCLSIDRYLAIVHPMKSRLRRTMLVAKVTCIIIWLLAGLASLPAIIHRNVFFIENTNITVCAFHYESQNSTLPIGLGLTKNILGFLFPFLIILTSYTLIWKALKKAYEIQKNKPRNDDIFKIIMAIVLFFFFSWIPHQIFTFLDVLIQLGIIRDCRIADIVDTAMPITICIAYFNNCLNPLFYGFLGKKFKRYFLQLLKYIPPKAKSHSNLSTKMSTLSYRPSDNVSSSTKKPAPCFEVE

[7] = molecular target: Voltage-dependent L-type calcium channel subunit alpha-1C (Rattus norvegicus, UniProt P22002); assay type: functional
Voltage-dependent L-type calcium channel subunit alpha-1C, sequence (P22002 whole entry): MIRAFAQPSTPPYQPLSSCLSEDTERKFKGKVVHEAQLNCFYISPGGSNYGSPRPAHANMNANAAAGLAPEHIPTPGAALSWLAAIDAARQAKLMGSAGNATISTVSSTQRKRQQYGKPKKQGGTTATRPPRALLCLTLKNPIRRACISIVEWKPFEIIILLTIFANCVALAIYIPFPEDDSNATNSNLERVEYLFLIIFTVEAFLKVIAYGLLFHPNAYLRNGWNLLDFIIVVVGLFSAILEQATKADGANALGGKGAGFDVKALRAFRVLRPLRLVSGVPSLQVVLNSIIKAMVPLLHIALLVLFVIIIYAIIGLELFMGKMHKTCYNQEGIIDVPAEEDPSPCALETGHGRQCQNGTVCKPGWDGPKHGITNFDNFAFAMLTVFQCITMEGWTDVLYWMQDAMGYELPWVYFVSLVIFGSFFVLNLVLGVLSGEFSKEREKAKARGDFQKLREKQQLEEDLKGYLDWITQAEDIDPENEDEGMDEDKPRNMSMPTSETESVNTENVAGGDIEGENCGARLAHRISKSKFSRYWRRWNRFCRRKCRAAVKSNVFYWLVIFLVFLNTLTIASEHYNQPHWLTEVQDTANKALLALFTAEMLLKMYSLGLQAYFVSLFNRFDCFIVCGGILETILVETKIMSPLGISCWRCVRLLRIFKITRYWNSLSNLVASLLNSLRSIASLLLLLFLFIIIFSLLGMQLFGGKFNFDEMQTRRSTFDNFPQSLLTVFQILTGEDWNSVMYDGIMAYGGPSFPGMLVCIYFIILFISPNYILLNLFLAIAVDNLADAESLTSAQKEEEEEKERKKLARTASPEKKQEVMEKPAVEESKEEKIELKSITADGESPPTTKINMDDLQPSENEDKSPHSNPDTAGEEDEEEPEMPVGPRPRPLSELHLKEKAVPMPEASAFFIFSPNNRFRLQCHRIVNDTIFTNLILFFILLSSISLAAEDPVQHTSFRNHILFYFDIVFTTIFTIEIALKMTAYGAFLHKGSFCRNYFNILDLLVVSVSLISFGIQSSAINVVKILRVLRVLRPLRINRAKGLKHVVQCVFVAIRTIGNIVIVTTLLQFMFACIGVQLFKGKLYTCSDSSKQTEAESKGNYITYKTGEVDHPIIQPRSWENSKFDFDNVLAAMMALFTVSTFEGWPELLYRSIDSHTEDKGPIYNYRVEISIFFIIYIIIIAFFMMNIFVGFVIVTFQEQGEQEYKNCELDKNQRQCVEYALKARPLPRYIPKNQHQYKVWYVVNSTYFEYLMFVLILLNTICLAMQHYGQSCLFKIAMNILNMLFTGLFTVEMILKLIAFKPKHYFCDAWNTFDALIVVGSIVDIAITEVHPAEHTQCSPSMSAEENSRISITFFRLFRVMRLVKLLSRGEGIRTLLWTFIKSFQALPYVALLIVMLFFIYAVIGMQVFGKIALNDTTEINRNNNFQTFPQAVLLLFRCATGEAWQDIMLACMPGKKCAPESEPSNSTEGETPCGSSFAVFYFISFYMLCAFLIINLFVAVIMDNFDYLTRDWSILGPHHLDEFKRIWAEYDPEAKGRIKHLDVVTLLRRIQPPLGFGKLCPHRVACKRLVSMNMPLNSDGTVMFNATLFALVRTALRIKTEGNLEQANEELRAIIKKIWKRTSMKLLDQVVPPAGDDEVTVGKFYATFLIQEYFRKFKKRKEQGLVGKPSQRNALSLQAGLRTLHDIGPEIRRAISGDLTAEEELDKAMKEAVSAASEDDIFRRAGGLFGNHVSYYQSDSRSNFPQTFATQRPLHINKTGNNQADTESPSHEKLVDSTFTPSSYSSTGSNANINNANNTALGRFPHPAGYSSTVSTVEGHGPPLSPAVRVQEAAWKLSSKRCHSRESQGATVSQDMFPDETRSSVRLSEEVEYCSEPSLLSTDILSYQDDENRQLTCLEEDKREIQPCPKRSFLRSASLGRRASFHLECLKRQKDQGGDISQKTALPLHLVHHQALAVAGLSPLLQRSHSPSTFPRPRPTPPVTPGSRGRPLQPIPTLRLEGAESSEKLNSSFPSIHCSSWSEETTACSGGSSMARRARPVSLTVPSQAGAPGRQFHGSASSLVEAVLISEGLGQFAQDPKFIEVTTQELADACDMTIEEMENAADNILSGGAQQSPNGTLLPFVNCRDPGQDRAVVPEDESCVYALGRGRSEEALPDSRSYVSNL

Endothelin-1 receptor = molecular target: T3, Endothelin-1 receptor (Homo sapiens, UniProt P25101)
T3 sequence (P25101 whole entry): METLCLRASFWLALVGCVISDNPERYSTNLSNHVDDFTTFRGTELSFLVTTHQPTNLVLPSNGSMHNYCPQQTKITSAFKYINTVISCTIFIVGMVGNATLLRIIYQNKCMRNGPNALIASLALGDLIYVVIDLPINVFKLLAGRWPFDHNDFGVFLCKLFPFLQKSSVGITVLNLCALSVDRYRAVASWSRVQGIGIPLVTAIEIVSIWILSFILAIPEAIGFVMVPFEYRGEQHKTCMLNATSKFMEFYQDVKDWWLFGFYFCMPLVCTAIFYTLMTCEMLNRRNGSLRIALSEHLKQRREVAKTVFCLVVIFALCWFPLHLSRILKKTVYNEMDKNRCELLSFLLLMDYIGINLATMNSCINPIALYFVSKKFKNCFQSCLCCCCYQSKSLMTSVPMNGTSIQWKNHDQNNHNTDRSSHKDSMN

[8] = molecular target: Sodium-dependent serotonin transporter (Homo sapiens, UniProt P31645)
Sodium-dependent serotonin transporter, sequence (P31645 whole entry): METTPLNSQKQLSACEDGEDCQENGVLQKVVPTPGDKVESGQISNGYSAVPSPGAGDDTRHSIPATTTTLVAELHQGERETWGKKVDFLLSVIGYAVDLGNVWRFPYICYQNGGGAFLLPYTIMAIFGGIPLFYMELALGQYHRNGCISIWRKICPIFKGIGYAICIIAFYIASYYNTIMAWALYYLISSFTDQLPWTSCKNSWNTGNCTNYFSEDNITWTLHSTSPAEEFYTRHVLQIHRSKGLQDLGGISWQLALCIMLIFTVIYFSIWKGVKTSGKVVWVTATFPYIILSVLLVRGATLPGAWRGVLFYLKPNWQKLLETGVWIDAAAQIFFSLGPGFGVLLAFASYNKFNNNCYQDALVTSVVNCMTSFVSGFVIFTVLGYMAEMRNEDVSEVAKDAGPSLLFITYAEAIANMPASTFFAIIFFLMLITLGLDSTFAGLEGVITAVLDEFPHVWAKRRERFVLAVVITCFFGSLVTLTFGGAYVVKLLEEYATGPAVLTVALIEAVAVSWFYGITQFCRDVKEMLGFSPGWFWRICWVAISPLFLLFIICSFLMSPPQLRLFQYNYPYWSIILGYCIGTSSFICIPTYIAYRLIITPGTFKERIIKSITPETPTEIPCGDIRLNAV

Vasopressin V1a receptor = Vasopressin V1a receptor (Homo sapiens, UniProt P37288)
Vasopressin V1a receptor, sequence (P37288 whole entry): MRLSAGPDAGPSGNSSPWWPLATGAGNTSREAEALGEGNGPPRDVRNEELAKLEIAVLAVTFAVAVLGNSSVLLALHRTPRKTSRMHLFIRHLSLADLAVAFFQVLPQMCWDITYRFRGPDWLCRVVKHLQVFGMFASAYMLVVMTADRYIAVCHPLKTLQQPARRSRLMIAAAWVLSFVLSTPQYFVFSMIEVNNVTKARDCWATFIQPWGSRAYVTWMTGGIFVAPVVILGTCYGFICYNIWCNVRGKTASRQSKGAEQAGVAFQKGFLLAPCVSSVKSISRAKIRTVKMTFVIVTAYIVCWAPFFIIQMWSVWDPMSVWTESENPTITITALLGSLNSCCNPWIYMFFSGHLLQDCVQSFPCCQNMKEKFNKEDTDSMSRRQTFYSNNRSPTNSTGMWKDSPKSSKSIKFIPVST

[9] = molecular target: T4, Equilibrative nucleoside transporter 1 (Homo sapiens, UniProt Q99808)
T4 sequence (Q99808 whole entry): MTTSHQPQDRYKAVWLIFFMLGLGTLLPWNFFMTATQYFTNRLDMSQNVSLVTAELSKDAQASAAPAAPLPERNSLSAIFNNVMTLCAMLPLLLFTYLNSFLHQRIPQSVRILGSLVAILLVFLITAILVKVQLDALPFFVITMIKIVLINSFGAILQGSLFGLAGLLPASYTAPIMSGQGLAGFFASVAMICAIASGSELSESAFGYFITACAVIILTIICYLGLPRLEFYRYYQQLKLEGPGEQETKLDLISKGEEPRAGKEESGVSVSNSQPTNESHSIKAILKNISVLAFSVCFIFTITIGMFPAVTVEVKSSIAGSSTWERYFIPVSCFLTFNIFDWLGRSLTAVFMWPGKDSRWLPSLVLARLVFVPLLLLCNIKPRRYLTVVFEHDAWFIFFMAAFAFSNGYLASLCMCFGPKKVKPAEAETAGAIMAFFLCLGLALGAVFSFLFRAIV

[10] = molecular target: Delta-type opioid receptor (Homo sapiens, UniProt P41143)
Delta-type opioid receptor, sequence (P41143 whole entry): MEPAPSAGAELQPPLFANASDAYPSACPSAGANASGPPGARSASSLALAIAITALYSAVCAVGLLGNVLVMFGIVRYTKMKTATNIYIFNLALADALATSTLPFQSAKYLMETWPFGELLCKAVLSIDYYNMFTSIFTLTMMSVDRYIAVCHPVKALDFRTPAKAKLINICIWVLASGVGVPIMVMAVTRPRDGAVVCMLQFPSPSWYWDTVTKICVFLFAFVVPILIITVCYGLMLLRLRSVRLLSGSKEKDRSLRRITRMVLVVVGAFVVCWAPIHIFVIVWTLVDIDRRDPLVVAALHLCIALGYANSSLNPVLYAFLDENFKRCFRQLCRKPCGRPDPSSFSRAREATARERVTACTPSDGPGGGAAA

Glucocorticoid receptor = molecular target: T5, Glucocorticoid receptor (Homo sapiens, UniProt P04150)
T5 sequence (P04150 whole entry): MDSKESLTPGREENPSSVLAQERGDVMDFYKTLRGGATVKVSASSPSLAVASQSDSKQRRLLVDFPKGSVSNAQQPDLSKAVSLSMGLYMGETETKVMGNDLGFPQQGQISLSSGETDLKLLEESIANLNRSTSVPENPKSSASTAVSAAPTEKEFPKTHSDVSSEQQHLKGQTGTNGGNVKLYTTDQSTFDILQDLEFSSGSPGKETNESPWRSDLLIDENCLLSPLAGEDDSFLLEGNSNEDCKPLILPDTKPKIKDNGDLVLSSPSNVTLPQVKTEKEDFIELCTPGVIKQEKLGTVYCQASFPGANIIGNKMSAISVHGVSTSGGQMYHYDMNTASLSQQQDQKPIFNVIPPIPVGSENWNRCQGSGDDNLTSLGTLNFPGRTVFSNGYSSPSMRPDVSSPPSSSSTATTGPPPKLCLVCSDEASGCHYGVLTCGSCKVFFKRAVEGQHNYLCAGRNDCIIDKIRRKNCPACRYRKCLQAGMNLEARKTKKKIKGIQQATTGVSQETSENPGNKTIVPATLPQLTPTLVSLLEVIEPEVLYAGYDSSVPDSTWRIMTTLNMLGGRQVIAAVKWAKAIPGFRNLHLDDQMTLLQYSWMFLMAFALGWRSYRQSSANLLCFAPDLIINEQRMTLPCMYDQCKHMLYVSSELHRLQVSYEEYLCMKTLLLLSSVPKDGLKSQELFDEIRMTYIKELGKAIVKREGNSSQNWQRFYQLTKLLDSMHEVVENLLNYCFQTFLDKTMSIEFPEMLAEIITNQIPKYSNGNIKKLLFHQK
Also: assay procedure not described here.

SMILES | AC50 [1] [µM] | AC50 [2] [µM] | AC50 [3] [µM] | AC50 [4] [µM] | AC50 (Motilin receptor) [µM] | AC50 [5] [µM] | AC50 [6] [µM] | AC50 [7] [µM] | AC50 (Endothelin-1 receptor) [µM] | AC50 [8] [µM] | AC50 (Vasopressin V1a receptor) [µM] | AC50 [9] [µM] | AC50 [10] [µM] | AC50 (Glucocorticoid receptor) [µM]
CCC(=O)OCC(=O)[C@@]1(OC(=O)CC)[C@@H](C)C[C@H]2[C@@H]3CCC4=CC(=O)C=C[C@]4(C)[C@@]3(F)[C@@H](O)C[C@@]21C [BETAMETHASONE DIPROPIONATE] | > 30 | > 30 | > 30 | > 30 | > 30 | > 30 | > 30 | > 30 | > 30 | > 30 | > 30 | > 30 |  | 
Cc1ccc2c(-c3ccccc3)nc(=O)n(C(C)C)c2c1 [PROQUAZONE] | > 30 | > 30 | > 30 | > 30 | > 30 | > 30 | > 30 |  | > 30 | > 30 | > 30 |  | 30 | > 30
CN1CCN(c2c(F)cc3c(=O)c(C(=O)O)cn4c3c2SCC4)CC1 [RUFLOXACIN] | > 30 | > 30 | > 30 | > 30 | > 30 | > 30 | > 30 |  | > 30 | > 30 | > 30 |  | > 30 | > 30
CCOC(=O)NNc1ccc(N(CC)CC(C)O)nn1 (configuration not stated) [CADRALAZINE] | > 30 | > 30 | > 30 | > 30 | > 30 | > 30 | > 30 | > 30 | > 30 | > 30 | > 30 | > 30 | > 30 | 
CC(C)c1cc2c(cc1S(=O)(=O)O)[C@@]1(C)CCC[C@@](C)(C(=O)O)[C@@H]1CC2 [ECABET] | > 30 | > 30 | > 30 | > 30 | > 30 | > 30 | > 30 | > 30 | > 30 | > 30 | > 30 | > 30 | > 30 | 
Cc1ccc(=O)n(-c2ccccc2)c1 [PIRFENIDONE] | > 30 | > 30 | > 30 | > 30 | > 30 | > 30 | > 30 |  | > 30 | > 30 | > 30 | > 30 | > 30 | 
N#C[C@@H]1CCCN1C(=O)CNC12CC3CC(CC(O)(C3)C1)C2 [VILDAGLIPTIN] | > 30 | > 30 | > 30 | > 30 | > 10 | > 30 | > 30 |  |  | > 30 | > 30 | > 30 | > 30 | > 30
COc1c(O[C@@H]2O[C@H](CO)[C@@H](O)[C@H](O)[C@H]2O)cc2c(c1OC)-c1ccc(SC)c(=O)cc1[C@@H](NC(C)=O)CC2 [THIOCOLCHICOSIDE] | > 30 | > 30 | > 30 | > 30 | > 30 | > 30 | > 30 | > 30 | > 30 | > 30 | > 30 |  | > 30 | 
O=C(O)c1ccccc1OP(=O)(O)O [FOSFOSAL] | > 30 | > 30 |  | > 30 | > 30 | > 30 | > 30 |  | > 30 | > 30 | > 30 | > 30 | > 30 | > 30
O=C1Nc2ccc(Cl)cc2C(c2ccccc2)=NC1O (configuration not stated) [OXAZEPAM] | > 30 | > 10 | > 10 |  | > 10 | > 30 | > 30 | > 10 | > 30 | > 10 | > 10 | > 30 | > 10 | 
CO[C@@]1(NC(=O)Cc2cccs2)C(=O)N2C(C(=O)O)=C(COC(N)=O)CS[C@@H]21 [CEFOXITIN] | > 30 | > 30 | > 30 | > 30 | > 30 | > 30 | > 30 |  | > 30 | > 30 | > 30 | > 30 | > 30 | 
CN(c1nccc(=O)[nH]1)C1CCN(c2nc3ccccc3n2Cc2ccc(F)cc2)CC1 [MIZOLASTINE] | > 30 | > 30 | > 30 | 3.34 | > 30 | > 30 | > 30 | > 30 | > 30 | > 30 | > 30 | > 30 | > 30 | 
CCCC(C)(COC(N)=O)COC(=O)NC(C)C (configuration not stated) [CARISOPRODOL] | > 30 | > 10 | > 10 | > 30 | > 10 | > 30 | > 30 | > 10 | > 30 | > 10 | > 10 | > 30 | > 30 | 
NS(=O)(=O)c1cc2c(cc1C(F)(F)F)NC(Cc1ccccc1)NS2(=O)=O (configuration not stated) [BENDROFLUMETHIAZIDE] | > 10 | > 10 | > 10 | > 30 | > 10 | > 10 | > 10 | > 10 |  | > 30 | > 10 | > 30 | > 30 | 

Source: ChEMBL document CHEMBL5291721, “A preclinical secondary pharmacology resource illuminates target-adverse drug reaction associations of marketed drugs” (Nat Commun, 2023)
